Read-outs that look alike come from different tables or passages of the source.
Tests used:
[1] = test system: C33A; experiment: MTT antiproliferative assay, C33A; type: cell-based, human; conditions: Homo sapiens, C-33-A, 72 h; for IC50: read-out: calculated IC50 C33A
Protocol: (§1) We evaluated the cytotoxic activity of the newly synthesised arylated compounds 13–17 by the MTT assay[37] on a panel of human adherent cancer cell lines. The panel included breast (MCF-7 and MDA MB-231) and cervical (HeLa, SiHa and C33A) cancer cell lines differing in receptorial or HPV status. Tumour selectivity was determined on the NIH/3T3 mouse fibroblast cell line.
(§2) Briefly, the panels of breast and cervical cancerous cell lines, differing by their receptorial and HPV status were used, precisely MCF-7 (ER, PR and HER2 positive) and MDA-MB-231 (TNBC) breast carcinoma and HeLa (HPV18+), SiHa (HPV16+), C33A (HPV-) cervical carcinoma cells. Non-cancerous NIH/3T3 mouse fibroblast cell line was used for selectivity study. MCF-7, MDA-MB-231, Hela and NIH/3T3 cell lines were purchased from ECACC (European Collection of Cell Cultures, Salisbury, UK), while SiHa and C33A from ATCC (American Tissue Culture Collection, LGC Standards GmbH, Wesel, Germany). Cells were maintained in Eagle's Minimum Essential Medium (EMEM, Capricorn Scientific GmbH, Ebsdorfergrund, Germany) supplemented with 10% heat-inactivated fetal bovine serum (FBS), 1% non-essential amino acids (NEAA), and 1% antibiotic-antimycotic mixture (penicillin–streptomycin). The cells were maintained at 37 °C in a humidified atmosphere containing 5% CO2.
(§3) For measurements cells were seeded for 96-well plates at a density of 5 000/well, except for C33A, which was seeded in 10 000cells for each well. After overnight standing cells were treated with 10 and 30 µM solutions for screening and increasing concentrations (0.1-30.0 µM) of the test compounds were used for concentration-response curves. After incubation for 72 hours under cell culturing condition 5 mg/ml MTT (3-(4,5-[…])-2,5-diphenyl-2H-tetrazolium bromide) solution was added for another 4 h. The precipitated formazan crystals were solubilized in DMSO and the absorbance was measured at 545 nm with a microplate reader (BMG Labtech, Ortenberg, Germany). Wells with untreated cells were utilized as control, and inhibition % were calculated by GraphPad Prism v 9.0 software (GraphPad Software, San Diego, CA, USA). If the growth-inhibition exceeded 70% at 30 µM concentration during the screening concentration-response curves were fitted and IC50 values were calculated by GraphPad Prism v 9.0. The experiments were performed with five parallel wells for each experimental condition and repeated at least twice.

[2] = test system: HeLa; experiment: MTT antiproliferative assay, HeLa; type: cell-based, human; conditions: Homo sapiens, HeLa, 72 h; for IC50: read-out: calculated IC50 HeLa
Protocol: as §1, §2, §3

[3] = test system: human adherent cancer cell lines (HeLa, SiHa, C33A, MCF-7 and MDA-MB-231); experiment: MTT assay, whole panel of cell lines; type: cell-based; conditions: for IC50: Homo sapiens, MTT, 72 h, range across cell lines, read-out: IC50 range over the investigated cell lines
Protocol: as §1, §2, §3

[4] = test system: MDA-MB-231; experiment: MTT antiproliferative assay, MDA-MB-231; type: cell-based, human; conditions: Homo sapiens; for inhibition at 10 µM: MDA-MB-231, 10 µM; for inhibition at 10 µM / inhibition at 30 µM: 72 h; for inhibition at 30 µM: MDA-MB-231, 30 µM; for IC50: MDA-MB-231, 72 h, read-out: calculated IC50 MDA-MB-231
Protocol: as §1, §2, §3

[5] = biological target: T1, 17β-HSD1 (Homo sapiens, UniProt P14061); experiment: 17β-HSD1 enzymatic assay (E1 to E2, LC-MS/MS); type: biochemical
T1 sequence (P14061 1-328): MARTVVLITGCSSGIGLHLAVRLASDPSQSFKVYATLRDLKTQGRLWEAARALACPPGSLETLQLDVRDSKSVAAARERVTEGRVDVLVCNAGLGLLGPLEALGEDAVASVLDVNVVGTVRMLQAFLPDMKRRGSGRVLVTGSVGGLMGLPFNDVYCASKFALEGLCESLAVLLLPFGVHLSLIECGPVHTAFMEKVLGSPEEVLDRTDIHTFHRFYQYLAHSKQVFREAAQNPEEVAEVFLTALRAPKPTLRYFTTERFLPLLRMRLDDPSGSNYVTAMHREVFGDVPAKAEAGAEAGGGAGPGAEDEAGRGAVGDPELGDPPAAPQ
Protocol: The bacterial homogenate of E. coli overexpressing HSD17B1 was previously prepared as described in references ^S2,S3, and stored in aliquots at -80 °C. Before conducting experiments, aliquots were quickly thawed and diluted twice with 100 mM sodium phosphate buffer (pH 6.5; #14457, #1411007, Kemika), then kept on ice. The enzymatic assay was performed as described in ^S3. Briefly, a 1 mL enzymatic reaction mixture was prepared in 2 mL microcentrifuge tubes with the following components: 10 µL of the test inhibitor dissolved in dimethyl sulfoxide (DMSO; #276855, Sigma Aldrich) or 10 µL of DMSO for control samples, 5 µL of 14 µM substrate estrone (E1; CAS 53-16-7; #E2300-000, Steraloids), 10 µL of 10 mM NADPH (#AE14, Carl Roth) prepared in 100 mM sodium phosphate buffer, and 965 µL of 100 mM sodium phosphate buffer (pH 6.5). The reaction mixture was mixed thoroughly before adding 10 µL of bacterial homogenate. Immediately after addition, the tubes were transferred to an Eppendorf thermoshaker (#5382000031, Eppendorf) and incubated at 37 °C for 10 minutes. To stop the reaction, 60 µL of 1.26 M ascorbic acid (#A92902, Sigma Aldrich) in methanol (#34966, Honeywell/Riedel-de Haen) /acetic acid (#1.00063, Merck) (99:1, v/v) was added. The samples were then immediately processed using solid-phase extraction (SPE). The assay was repeated in three independent experiments, with each experiment performed in technical duplicate.
The preparation of samples for liquid chromatography-tandem mass spectrometry (LC-MS/MS) involved SPE. Stock solutions of E1 and 17β-estradiol (E2; CAS: 50-28-2; #142406, Steraloids) were prepared gravimetrically and dissolved in methanol (#34966, Honeywell/Riedel-de Haen). A working calibrator solution containing both steroids was then prepared by mixing appropriate volumes of the stock solutions in methanol to achieve a final concentration of 1 µg/mL for each steroid. Eight-point calibration curves (excluding zero and blank) were prepared in 100 mM sodium phosphate buffer (pH 6.5). For each 1 mL reaction mixture or calibrator, 10 µL of 100 ng/mL internal standard solution containing [2,3,4-13C3]-17β-estradiol (#719552, Sigma Aldrich) was added. Samples were mixed thoroughly and incubated at room temperature for 15 minutes.
SPE was performed using Strata X 33 µm polymeric reversed-phase columns (30 mg/mL tubes; #8B-S100-TAK, Phenomenex). The procedure involved the following steps: column conditioning with 1 mL of methanol, column equilibration with 1 mL of H₂O (#1.15333, Supelco), sample loading (1 mL sample or calibrator), column washing with 1 mL of H₂O, column drying under high vacuum for 10 minutes, and finally elution with 1 mL of methanol directly into HPLC glass vials (#702713, Macherey-Nagel GmbH/Co). The eluted samples were stored at -20 °C until LC-MS/MS analysis.

[6] = test system: SiHa; experiment: MTT antiproliferative assay, SiHa; type: cell-based, human; conditions: Homo sapiens, SiHa, 72 h; for IC50: read-out: calculated IC50 SiHa
Protocol: as §1, §2, §3

[7] = test system: NIH/3T3 mouse fibroblast cell line; experiment: MTT assay, tumour selectivity on non-cancerous fibroblasts; type: cell-based; conditions: Mus musculus; for inhibition at 10 µM: NIH3T3, 10 µM; for inhibition at 10 µM / inhibition at 30 µM: 72 h; for inhibition at 30 µM: NIH3T3, 30 µM; for IC50: NIH3T3, 72 h, read-out: calculated IC50 NIH/3T3
Protocol: as §1, §2, §3

[8] = test system: MCF-7; experiment: MTT antiproliferative assay, MCF-7; type: cell-based, human; conditions: Homo sapiens; for inhibition at 10 µM: MCF7, 10 µM; for inhibition at 10 µM / inhibition at 30 µM: 72 h; for inhibition at 30 µM: MCF7, 30 µM; for IC50: MCF7, 72 h, read-out: calculated IC50 MCF-7
Protocol: as §1, §2, §3

[9] = test system: HeLa cells; experiment: Cell cycle analysis by flow cytometry (propidium iodide); type: cell-based, human; conditions: 24 and 48 h
Protocol: To determine the cellular DNA content of the cells, flow cytometry analysis after propidium-iodide labeling was performed. Propidium iodide is a nuclear dye intercalating between the base pairs in DNA without sequence preference. Therefore, the cells' total emitted fluorescence will depend on each cell's DNA content, which varies depending on the cell cycle phase.
Hela cells were seeded into 12-well plates at 200,000 cells/well density for the cell cycle analysis. Cells were incubated overnight prior to the treatment, then treated with 1, 2, and 3 µM solutions of 14c compound for 24 h and 48 hours. After incubation, cells were washed twice with phosphate-buffered saline (PBS) and harvested. After centrifugation at 1200 rpm, for 7 minutes, cells were washed again with 300 µl PBS and fixed in 500 µl cold 70% ethanol. Samples were stained in 300 µl dye solution containing RNaseA, TritonX-100, sodium citrate, and 0.1 mg/ml-PI in distilled water. The suspension was incubated for 20 minutes in the dark at room temperature. Cells were measured by CytoFLEX flow cytometer, recorded by CytExpert Software (Beckman Coulter INC, Brea, CA, USA). In each analysis, 20,000 events were recorded inside the FSC/SSC gate, and the percentages of the cells in the different phases of the cell cycle were determined and analyzed using ModFit LT 6.0 software.

[10] = test system: HeLa cells; experiment: Mitochondrial membrane potential assay (JC-10, flow cytometry); type: cell-based, human; conditions: 24 h
Excerpt: JC-10 dye was used to investigate the changes in the mitochondrial membrane potential. JC-10 is a cationic dye that can pass through the cell membrane and accumulate in healthy mitochondria by forming reversible red-fluorescent aggregates. In addition, changes in membrane potential result in the failure to retain the aggregates. Therefore, the dye returns to the cytosol in green monomeric form. Mitochondrial changes may be detected by measuring the green and red fluorescent signals together.
Hela cells were seeded into 12-well plates at 200,000 cells/well density and incubated overnight. Cells were treated with 1 and 2 µM of 17c for 24 h and 10 µM of CCCP as reference compound ^S1. After the incubation, cells were collected and centrifuged at 1100 rpm for 6 minutes, then washed with PBS. After centrifugation, 300 µl dye solution (20 µM JC-10 final concentration) was added to the pellet. After 5 min incubation, cells were measured by CytoFLEX flow cytometer, recorded by CytExpert Software (Beckman Coulter INC, Brea, CA, USA) reading of red and green fluorescence on 525 and 585 channels.

[11] = test system: cancer cell lines; conditions: cited from earlier work
[12] = test system: MDA-MB-231; design: method as in PMID 21912610, PMID 28436164; conditions: cited from earlier work

Row | SMILES | inhibition at 10 µM [1] [%] | inhibition at 30 µM [1] [%] | IC50 [1] [nM] | inhibition at 10 µM [2] [%] | inhibition at 30 µM [2] [%] | IC50 [2] [nM] | IC50 [3] [nM] | inhibition at 10 µM [4] [%] | inhibition at 30 µM [4] [%] | IC50 [4] [nM] | inhibition at 10 µM [6] [%] | inhibition at 30 µM [6] [%] | IC50 [6] [nM] | inhibition at 10 µM [7] [%] | inhibition at 30 µM [7] [%] | IC50 [7] [nM] | inhibition at 10 µM [8] [%] | inhibition at 30 µM [8] [%] | IC50 [8] [nM] | also measured
1 | CC(C)(C)c1ccc(-c2cc(O)cc3c2[C@H]2CC[C@@]4(C)C(=O)CC[C@H]4[C@@H]2CC3)cc1 [14c, 3-hydroxy-1-(4-tert-butylphenyl)-13α-estra-1,3,5(10)-triene-17-one] | 25.4 | 89.8 | 14400 | 21.9 | 98.3 | 13000 | 10600 to 20500 | < 10 | 91.3 | 20500 | 20.2 | 99.6 | 12500 | 16.1 | 98.3 | 13700 | 35.4 | 101 | 10600 | inhibition at 100 µM ([5]; 100 µM test concentration, read-out: 17β-HSD1 Inhibition (% ± SD)): 77.6 ± 6.3%; IC50 ([5]; read-out: 17β-HSD1 calculated IC50 (95% CI)): 2700 nM
2 | CCCCOC1(c2cc(=O)c3c(Oc4ccc(C(C)(C)C)cc4)cc(O)cc3o2)C=CC(=O)C=C1 [17c, 2-(1-Butoxy-4-oxocyclohexa-2,5-dienyl)-5-(4-tert-butylphenoxy)-7-hydroxy-chromen-4-one] | 97.9 | 97.9 | 390 | 98 | 98 | 470 | 390 to 640 | 98.3 | 97 | 420 | 89.8 | 96.2 | 640 | 92.7 | 99 | 930 | 98.5 | 98.9 | 600 | times stronger activity than parent compound 10 ([3]; ratio of IC50 values, all investigated cell lines): 2.5–5 times; subG1 phase [9]: substantial subG1 phase elevation; proportion of the cells at G2/M phase ([9]; concentration-dependent): significantly increases; number of mitochondrial membrane-disrupted cells ([10]; 1 and 2 µM, vs untreated controls): significantly increased; effect on mitochondrial membrane potential compared with reference agent CCCP ([10]; CCCP 10 µM): more substantial than that of the applied reference agent CCCP
3 | C[C@@]12CC[C@@H]3c4ccc(OCc5cn(Cc6ccccc6)nn5)cc4CC[C@H]3[C@@H]1CCC2=O [compound 5] |  |  |  |  |  |  |  |  |  |  |  |  |  |  |  |  |  |  |  | IC50 [11]: 600 to 900 nM; IC50 (cytotoxic) [11]: submicromolar
4 | O=C1C=CC(O)(c2cc(=O)c3c(O)cc(O)cc3o2)C=C1 [compound 9, Protoapigenone] |  |  |  |  |  |  |  |  |  |  |  |  |  |  |  |  |  |  |  | IC50 [12]: 1350 nM

From PMC12278462, “Site-selective arylations of nature-inspired flavonoids or steroidal phenols via C—H or O—H activation” (Journal of Enzyme Inhibition and Medicinal Chemistry, 2025)
